“Also recorded” adds a separate entry of the source.
Tests used:
[1] = system: TI-Treg MR proteins (17-MR protein signature); assay: PLATE-Seq perturbational RNA-seq of TI-Tregs with VIPER / OncoTreat analysis; assay type: cell-based, human; conditions: for patient-by-patient inhibition of TI-Treg vs P-Treg MR activity (OncoTreat): individual TI- vs. P-Treg signatures of all 36 patients
Description: (§1) To reduce study complexity and cost, the inventors first assessed the effect of a library of 1,554 FDA-approved and investigational compounds on human-derived P-Treg viability at a single, relatively large concentration (5 μM). For this screen, human P-Tregs were flow sorted, expanded ex vivo, and drug treated in a 96-well plate format (FIG. 6A). The inventors then selected 195 compounds that inhibited P-Treg viability ≥60% (FIG. 6B). To further reduce the number of candidate drugs, the inventors then generated 10-point drug response curves to identify the 48 h EC20 concentration of the 195 compounds, then selected a repertoire of 86 compounds with the lowest EC20 for efficient perturbational profile analysis in a 96-well format, when considering inclusion of vehicle controls (DMSO). As previously reported (Bush et al., 2017; Douglass et al., 2020), the 48 h EC20 (maximum sublethal) concentration was selected to effectively assess the 24 h drug mechanism of action, while reducing confounding effects arising from activation of cell stress or death pathways. Finally, the EC20 concentration of each compound was then used to perturb TI-Tregs flow-sorted from a chemo-naïve human clear cell carcinoma specimen and expanded ex vivo, into 96-well plates, followed by RNA-seq profiling using the fully automated PLATE-Seq technology (Bush et al., 2017; Douglass et al., 2020). Viability, as well as perturbational RNA-seq profiles of TI-Tregs were collected (FIGS. 6C-D). By using the differential protein activity signature in drug- vs. vehicle control-treated TI-Tregs, we identified the compounds capable of inducing the most statistically significant inactivation of TI-Treg-specific MR proteins (OncoTreat algorithm (Alvarez et al., 2018). From this analysis, 32 compounds were nominated as statistically significant inhibitors of the 17-MR protein signature (FIG. 7B), seven of which preferentially depleted TI-Treg vs. P-Treg viability in vitro (FIGS. 6C-D), and which were also found to inhibit patient-by-patient TI-Treg vs P-Treg MRs across all tumor types and nearly all patients (FIG. 6E).
Wells of drug-treated Tregs were RNA-Sequenced and each normalized with viperSignature against the internal DMSO-control wells on the same PLATE. VIPER was run on the normalized gene expression using the T-cell ARACNe network inferred from sorted bulk-RNA-Sequencing clinical data. Drugs were ranked on their overall inversion across patients of the 17-gene Master Regulator signature previously identified and validated by CRISPR (FIG. 7B), as well as on their patient-by-patient inversion of Tumor-Treg vs Peripheral-Treg protein activity signature by OncoTreat (FIG. 6E).

[2] = system: MC38 syngeneic tumor model; assay: MC38 tumor growth and survival in immune-competent C57BL/6J mice; assay type: in vivo
Description: 10 C57BL/6J mice per treatment arm were implanted with subcutaneous MC38 tumor cells. Treatment was initiated after 12 days of initial tumor growth, at which point mice were monitored for tumor volume until exceeding 1000 mm^3 or ulceration exceeding a diameter of 5 mm. […] Floxuridine and triapine were IP daily from day 12-18 at 1 mg/kg and 5 mg/kg, respectively, also reflecting 1/10th the standard murine dose. Mice receiving anti-PD-1 were administered anti-PD-1 IP on days 12, 15, and 18.

[3] = system: human tumor Tregs (TI-Tregs); assay: viability of sorted tumor Tregs vs peripheral Tregs at peripheral-Treg EC20 dose; assay type: cell-based; conditions: at peripheral-Treg EC20 (IC20) dose; TI-Tregs from clear cell renal carcinoma expanded ex vivo
Description: as §1, with “By using the differential protein activity signature in drug- vs. vehicle control-treated TI-Tregs, we identified the compounds capable of inducing the most statistically significant inactivation of TI-Treg-specific MR proteins (OncoTreat algorithm (Alvarez et al., 2018). From this analysis, 32 compounds were nominated as statistically significant inhibitors of the 17-MR protein signature (FIG. 7B), seven of which preferentially depleted TI-Treg vs. P-Treg viability in vitro (FIGS. 6C-D), and which were also found to inhibit patient-by-patient TI-Treg vs P-Treg MRs across all tumor types and nearly all patients (FIG. 6E).” left out

[4] = system: TRC3 cluster Tregs (enriched for TI-Treg MRs); assay: scRNA-seq of MC38 tumor- and spleen-derived Tregs after gemcitabine; assay type: in vivo, FoxP3Yfp-Cre mice; conditions: 24 hours after single 12 mg/kg dose
MC38 tumors = assay: MC38 tumor growth and survival in immune-deficient NSG mice; assay type: in vivo
Description: To assess whether low-dose gemcitabine effects were immune-mediated, we performed parallel dose titrations in immune-competent C57BL/6J mice and severely immune-deficient NSG (NOD.Cg-Prkdc^scid Il2rg^tm1Wj1/SzJ) mice lacking both innate and adaptive immunity.
To test whether immune-dependent activity could be observed in this range of concentrations, we dosed cohorts of mice with 1-10 mg/kg gemcitabine, with an additional cohort of C57BL/6J mice receiving anti-PD-1 in combination.
To further assess the doses at which gemcitabine inhibits tumor growth and the immune-mediated effects of gemcitabine, the inventors performed parallel dose titrations of Gem in immune-competent C57BL/6J mice and immune-deficient NSG (NOD.Cg-Prkdc^scid Il2rg^tm1Wjl/SzJ) mice, administering doses ranging from 0.12 mg/kg up to 120 mg/kg as shown in FIGS. 4D-E. At least 5 mice were treated per treatment arm. Doses were administered IP on days 12, 15, and 18, and treatment response was assessed by and Kaplan-Meier test (FIG. 8E).

Row | Structure (SMILES) | patient-by-patient inhibition of TI-Treg vs P-Treg MR activity (OncoTreat) [1] | tumor growth inhibition ([2]; triapine 5 mg/kg IP daily day 12-18, alone or with anti-PD-1) | differential TI-Treg vs. P-Treg viability reduction (toxicity) [3] | inhibition (down-regulation) of the 17-MR TI-Treg protein activity signature ([1]; TI-Tregs treated at EC20, 24 h, drug vs DMSO, VIPER protein activity) | efficacy in dose titration ([2]; between 12 mg/kg and 1.2 mg/kg, C57BL/6J) | dose range found to be immunogenic ([2]; dosed Q3D) [mg/kg] | advantage in C57BL/6 vs NSG mice ([2]; gemcitabine 1.2 mg/kg, p=0.09) | survival C57BL/6J vs. NSG ([2]; gemcitabine 10 mg/kg, p=0.253) | tumor growth kinetics vs vehicle ([2]; gemcitabine 12 mg/kg IP days 12, 15, 18, late stage MC38, p=0.003) | survival vs vehicle ([2]; gemcitabine 12 mg/kg IP days 12, 15, 18, late stage MC38, p=0.006) | tumor growth relative to vehicle control ([2]; gemcitabine 120 mg/kg, C57BL/6J, p<0.001 by Cox regression) | difference between C57BL/6J and NSG strains ([2]; gemcitabine 120 mg/kg, p=0.19) | TRC1 occupancy [4] | change of TRC3 occupancy in spleen population ([4]; spleen) | TRC3 cluster frequency among TI-Tregs ([4]; tumor, vehicle 30.1%, p=1.51e-20) [%] | efficacy in dose titration (MC38 tumors; between 12 mg/kg and 1.2 mg/kg, NSG) | activity in NSG mice (MC38 tumors; gemcitabine 3 mg/kg, p=0.84) | tumor growth relative to vehicle control (MC38 tumors; gemcitabine 120 mg/kg, NSG, p<0.001 by Cox regression) | tumor growth inhibition ([2]; floxuridine 1 mg/kg IP daily day 12-18, alone or with anti-PD-1)
1 | NC(=S)N/N=C/c1ncccc1N [triapine] | among the seven most significant TI-Treg MR activity inhibitors | gemcitabine was the only treatment found to significantly inhibit tumor growth | among the top 6 inducing the most significant differential TI- vs. P-Treg viability reduction |  |  |  |  |  |  |  |  |  |  |  |  |  |  |  | 
2 | Nc1ccn([C@@H]2O[C@H](CO)[C@@H](O)C2(F)F)c(=O)n1 [gemcitabine] | among the seven most significant TI-Treg MR activity inhibitors |  | preferential cytotoxic capacity against TI-Tregs; also recorded: preferentially toxic to TI-Tregs; also recorded: among the top 6 inducing the most significant differential TI- vs. P-Treg viability reduction | inhibits transcriptional activity of TI-Treg MRs | efficacy was lost | 3 to 10 | trending but non-significant advantage | trending survival advantage | significantly inhibit tumor growth; also recorded: significant reduction in growth kinetics | prolongation of survival | inhibited tumor growth | no significant difference | proportional increase | virtually no change | 14.9 | efficacy was lost | lack any activity | inhibited tumor growth | 
3 | O=c1[nH]c(=O)n([C@H]2C[C@H](O)[C@@H](CO)O2)cc1F [floxuridine] | among the seven most significant TI-Treg MR activity inhibitors |  | among the top 6 inducing the most significant differential TI- vs. P-Treg viability reduction |  |  |  |  |  |  |  |  |  |  |  |  |  |  |  | gemcitabine was the only treatment found to significantly inhibit tumor growth

Source: patent US20240108644A1, “TUMOR IMMUNOTHERAPY” (The Trustees of Columbia University in the City of New York, priority 2021, published 2024)
